Assay [1] deals with T1, CETP (Homo sapiens, UniProt P11597).
T1 construct: CETP is obtained in partially purified form from human plasma; from tissue; host or cells: human plasma
T1 sequence (P11597 18-493): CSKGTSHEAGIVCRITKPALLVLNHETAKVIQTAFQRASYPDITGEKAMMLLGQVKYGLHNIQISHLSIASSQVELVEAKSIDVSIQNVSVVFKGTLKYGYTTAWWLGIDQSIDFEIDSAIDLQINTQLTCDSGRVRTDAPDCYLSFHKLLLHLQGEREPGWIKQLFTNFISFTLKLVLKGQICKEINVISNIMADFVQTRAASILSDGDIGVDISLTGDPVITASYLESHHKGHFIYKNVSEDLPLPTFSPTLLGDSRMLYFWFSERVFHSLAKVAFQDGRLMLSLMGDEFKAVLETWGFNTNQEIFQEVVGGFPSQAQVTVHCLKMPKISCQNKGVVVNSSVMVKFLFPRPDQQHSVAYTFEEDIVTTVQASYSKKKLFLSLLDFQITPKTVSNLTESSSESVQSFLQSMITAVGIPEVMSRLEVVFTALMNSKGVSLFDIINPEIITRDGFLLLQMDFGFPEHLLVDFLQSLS
The assay is described as follows: CETP fluorescence test. Conditions: CETP from human plasma, 37° C., 4 hours; read-out: IC50 (nM) Fluor. test. In kind it is biochemical. The method, then: (§1) CETP is obtained in partially purified form from human plasma by differential centrifugation and column chromatography and used for the test. To this end, human plasma is adjusted to a density of 1.21 g per ml using NaBr and centrifuged at 4° C. at 50000 rpm for 18 h. The bottom fraction (d>1.21 g/ml) is applied to a Sephadex® Phenyl-Sepharose 4B (Pharmacia) column, washed with 0.15 M NaCl/0.001 M tris HCl pH 7.4 and then eluted with dist. water. Die CETP-active fractions are pooled, dialysed against 50 mM Na acetate pH 4.5 and applied to a CM-Sepharose® (Pharmacia) column. The mixture is then eluted using a linear gradient (0-1 M NaCl). The pooled CETP fractions are dialysed against 10 mM TrisHCl pH 7.4 and then further purified by chromatography on a Mono Q® column (Pharmacia).
Measurement of the CETP-catalysed transfer of a fluorescent cholesterol ester between liposomes—modified according to the procedure of Bisgaier et al., J. Lipid Res. 34, 1625 (1993).
For the production of the donor liposomes, 1 mg of cholesteryl 4,4-difluoro-5,7-dimethyl-4-bora-3a,4a-diaza-s-indacene-3-dodecanoate (cholesteryl BODIPY® FL C12, Molecular Probes) is dissolved in 600 μl of dioxane with 5.35 mg of triolein and 6.67 mg of phosphatidylcholine with gentle warming in an ultrasonic bath and this solution is added very slowly with ultrasonication to 63 ml of 50 mM tris/HCl, 150 mM NaCl, 2 mM EDTA buffer pH 7.3 at RT.
The suspension is then ultrasonicated under an N2 atmosphere for 30 minutes in the Braukson ultrasonic bath at about 50 watts, the temperature being kept at about 20° C.
The acceptor liposomes are obtained analogously from 86 mg of cholesteryl oleate, 20 mg of triolein and 100 mg of phosphatidylcholine dissolved in 1.2 ml of dioxane and 114 ml of above buffer by ultrasonication at 50 watts (20° C.) for 30 minutes.
For testing, a test mix consisting of 1 part of above buffer, 1 part of donor liposomes and 2 parts of acceptor liposomes is used.
80 μl of test mix are treated with 1-3 μg of enriched CETP fraction, obtained from human plasma by means of hydrophobic chromatography, and 2 μl of the substance to be investigated in DMSO and incubated at 37° C. for 4 hours.
The change in the fluorescence at 485/535 nm is a measure of the CE transfer; the inhibition of the transfer in comparison to the control batch without substance is determined.

Assay [2] deals with T1, CETP. Put plainly: CETP-SPA test. In kind it is biochemical. Conditions: 3H-cholesterol ester transfer from HDL to biotin-LDL, 37° C., 18 h. The method, then:
as §1
50 ml of fresh human EDTA plasma are adjusted to a density of 1.12 using NaBr and centrifuged at 4° C. in a Ty 65 rotor at 50000 rpm for 18 h. The upper phase is used for the obtainment of cold LDL. The lower phase is dialysed against 3×41 of PDB buffer (10 mM tris/HCl pH 7.4, […], 1 mM EDTA, 0.02% NaN3). Per 10 ml of retentate volume, 20 μl of 3H-cholesterol (Dupont NET-725; 1 μC/μl dissolved in ethanol!) is then added and the mixture is incubated at 37° C. under N2 for 72 h.
The batch is then adjusted to the density 1.21 using NaBr and centrifuged at 20° C. in a Ty 65 rotor at 50000 rpm for 18 h. The upper phase is recovered and the lipoprotein fractions are purified by gradient centrifugation. To this end, the isolated, labelled lipoprotein fraction is adjusted to a density of 1.26 using NaBr. 4 ml each of this solution are covered in centrifuged tubes (SW 40 rotor) with a layer of 4 ml of a solution of density 1.21 and 4.5 ml of a solution of 1.063 (density solutions of PDB buffer and NaBr) and then centrifuged for 24 h at 38000 rpm and 20° C. in the SW 40 rotor. The intermediate layer lying between the density 1.063 and 1.21, containing the labelled HDL, is dialysed against 3×100 volumes of PDB buffer at 4° C.
The retentate contains radiolabelled ^3H-CE-HDL, which, adjusted to about 5×10^6 cmp per ml, is used for the test.
For testing of the CETP activity, the transfer of ^3H-cholesterol ester from human HD lipoproteins to biotinylated LD lipoproteins is measured.
The reaction is ended by addition of streptavidin-SPA®beads (Amersham) and the transferred radioactivity is determined directly in a liquid scintillation counter.
In the test batch, 10 μl of HDL-^3H-cholesterol ester (˜50000 cpm) are incubated at 37° C. for 18 h with 10 μl of biotin-LDL (Amersham) in 50 mM Hepes/0.15 M NaCl/0.1% bovine serum albumin/0.05% NaN3 pH 7.4 containing 10 μl of CETP (1 mg/ml) and 3 μl of solution of the substance to be tested (dissolved in 10% DMSO/1% RSA). 200 μl of the SPA-streptavidin bead solution (TRKQ 7005) are then added, incubated further with shaking for 1 h and then measured in a scintillation counter.
Corresponding incubations with 10 μl of buffer, 10 μl of CETP at 4° C. and 10 μl of CETP at 37° C. serve as controls.
The activity transferred in the control batches with CETP at 37° C. is rated as 100% transfer. The substance concentration at which this transfer is reduced to half is specified as the IC50 value.

In assay [3] the target is T2, CETP activity in the serum (Homo sapiens, UniProt P11597).
T2 construct: determination of its basal CETP activity in the serum; from tissue; host or cells: serum of transgenic hCETP mice
T2 sequence (P11597 18-493): T1 sequence (P11597 18-493)
The assay is described as follows: Ex vivo activities on transgenic hCETP mice (serum CETP activity after oral administration). Conditions: mouse, cholesteryl ester transport in serum. As for the experimental part:
To test for CETP-inhibitory activity, the substances are administered orally using a stomach tube to transgenic hCETP mice of our own breeding (Dinchuk et al. BBA (1995) 1295-301). To this end, male mice are randomly assigned to groups having an equal number of animals, as a rule n=3, one day before the start of the experiment. Before administration of the substance, blood is taken from each mouse by puncture of the retroorbital venous plexus for the determination of its basal CETP activity in the serum (T1). The test substance is then administered to the animals using the stomach tube. At specific times after administration of the test substance, blood is taken from the animals by puncture a second time (T2), as a rule 1, or 3 and 6 h after substance administration, but if appropriate this can also be carried out at another time.
In order to be able to assess the inhibitory activity of a substance, for each time, i.e. 1 or 3 or 6 h, a corresponding control group is employed whose animals only receive the formulating agent without substance. In the control animals, the second blood sampling per animal is carried out as in the substance-treated animals in order to be able to determine the change in the CETP activity without inhibitor over the corresponding experimental time interval (1, 3 or 6 h).
After termination of the clotting, the blood samples are centrifuged and the serum is removed by pipette.
For the determination of the CETP activity, the cholesteryl ester transport over 4 h is determined. To this end, as a rule 2 μl of serum are employed in the test batch and the test is carried out as described under “CETP fluorescence test”.
The differences in the cholesteryl ester transport (pM CE*/h (T2)−pM CE*/h (T1)) are calculated for each animal and averaged in the groups. A substance which at one of the times reduces the cholesteryl ester transport by >30% is regarded as active.

The mark [4] stands for this setting: 1 h after administration, read-out: % inhibition at 30 mg/kg, 1 h.
The mark [5] stands for this setting: 3 h after administration, read-out: % inhibition at 30 mg/kg, 3 h.
Setting [6] is: 6 h after administration, read-out: % inhibition at 30 mg/kg, 6 h.

Molecules are shown by their SMILES. Read-outs that look alike come from different tables or passages of the source.

In the case of `O[C@@H](c1ccc(C(F)(F)F)cc1)c1c(C2CCCC2)nc2c(c1-c1ccccc1)[C@@H](O)CC1(CCC1)C2` [Example 55, (5S)-2-Cyclopentyl-4-phenyl-3-[(S)-hydroxy-(4-trifluoromethylphenyl)-methyl]-7-spirocyclobutyl-5,6,7,8-tetrahydroquinolin-5-ol], at CETP [1], the IC50 turned out to be 65 nM.
For `CC(C)c1nc2c(c(-c3ccsc3)c1[C@@H](O)c1ccc(C(F)(F)F)cc1)[C@@H](O)CC1(CCC1)C2` [Example 57, (5S)-2-Isopropyl-4-(3-thienyl)-3-[(S)-hydroxy-(4-trifluoromethylphenyl)-methyl]-7-spirocyclobutyl-5,6,7,8-tetrahydroquinolin-5-ol], the values for the IC50 against CETP [2] and at CETP [1] were 40 nM and 45 nM, respectively.
The matching figures for `O[C@@H](c1ccc(C(F)(F)F)cc1)c1c(C2CCCC2)nc2c(c1-c1ccsc1)[C@@H](O)CC1(CCC1)C2` [Example 59, (5S)-2-Cyclopentyl-4-(3-thienyl)-3-[(S)-hydroxy-(4-trifluoromethylphenyl)-methyl]-7-spirocyclobutyl-5,6,7,8-tetrahydroquinolin-5-ol]: 35 nM and 60 nM.
For `O[C@@H](c1ccc(C(F)(F)F)cc1)c1c(C2CCCC2)nc2c(c1-c1cccs1)[C@@H](O)CC1(CCC1)C2` [Example 63, (5S)-2-Cyclopentyl-4-(2-thienyl)-3-[(S)-hydroxy-(4-trifluoromethylphenyl)-methyl]-7-spirocyclobutyl-5,6,7,8-tetrahydroquinolin-5-ol], the IC50 on CETP [1] was 70 nM. In addition, the inhibition at 30 mg/kg in assay [3] (setting [4]) was 74%; in assay [3] (setting [5]) it was 55%; in assay [3] (setting [6]), 40%.
The like results for `CC(C)c1nc2c(c(C3CCCCC3)c1[C@@H](O)c1ccc(C(F)(F)F)cc1)[C@@H](O)CC1(CCC1)C2` [Example 65, (5S)-2-Isopropyl-4-cyclohexyl-3-[(S)-hydroxy-(4-trifluoromethylphenyl)-methyl]-7-spirocyclobutyl-5,6,7,8-tetrahydroquinolin-5-ol] were, in that order, 80 nM, 69%, 46% and 28%.
Regarding `O[C@@H](c1ccc(C(F)(F)F)cc1)c1c(C2CCCC2)nc2c(c1C1CCCCC1)[C@@H](O)CC1(CCC1)C2` [Example 67, (5S)-2-Cyclopentyl-4-cyclohexyl-3-[(S)-hydroxy-(4-trifluoromethylphenyl)-methyl]-7-spirocyclobutyl-5,6,7,8-tetrahydroquinolin-5-ol], the results for the IC50 against CETP [2] and at CETP [1] were 15 nM and 60 nM, respectively.
Turning to `O[C@@H](c1ccc(C(F)(F)F)cc1)c1c(C2CCCC2)nc2c(c1C1CCC1)[C@@H](O)CC1(CCC1)C2` [Example 73, (5S)-2-Cyclopentyl-4-cyclobutyl-3-[(S)-hydroxy-(4-trifluoromethylphenyl)-methyl]-7-spirocyclobutyl-5,6,7,8-tetrahydroquinolin-5-ol], the IC50 on CETP [1] is 800 nM.
Still for that read-out and setting: the figure for `CC(C)c1c([C@@H](O)c2ccc(C(F)(F)F)cc2)c(C2CCCC2)nc2c1[C@@H](O)CC1(CCC1)C2` [Example 75, (5S)-2-Cyclopentyl-4-isopropyl-3-[(S)-hydroxy-(4-trifluoromethylphenyl)-methyl]-7-spirocyclobutyl-5,6,7,8-tetrahydroquinolin-5-ol] is 70 nM.
On the same count and under the same terms, the same measure for `CCCc1c([C@@H](O)c2ccc(C(F)(F)F)cc2)c(C2CCCC2)nc2c1[C@@H](O)CC1(CCC1)C2` [Example 77, (5S)-2-Cyclopentyl-4-(1-propyl)-3-[(S)-hydroxy-(4-trifluoromethylphenyl)-methyl]-7-spirocyclobutyl-5,6,7,8-tetrahydroquinolin-5-ol]: 2000 nM.

The values are drawn from US20050043341A1, “3-'Hydroxy-(-4-trifluoromethylphenyl)-methyl-7-spirocyclobutyl-5,6,7 8-tetrahydroquinolin-5-ol derivatives and the use of the same as cholesterol ester transfer protein (cetp) inhibitors” (priority 2001, published 2005).
